# Read-outs that look alike come from different tables or passages of the source.
# Experiments:
# [1] = target: T1, IRAK4 (Homo sapiens, UniProt Q9NWZ3); experiment: Degradation of IRAK4 in monocytes of human PBMCs (flow cytometry); assay type: cell-based; parameters: endogenous in cells; conditions: human PBMC monocytes, 24 hours incubation
# T1 sequence (Q9NWZ3 1-460): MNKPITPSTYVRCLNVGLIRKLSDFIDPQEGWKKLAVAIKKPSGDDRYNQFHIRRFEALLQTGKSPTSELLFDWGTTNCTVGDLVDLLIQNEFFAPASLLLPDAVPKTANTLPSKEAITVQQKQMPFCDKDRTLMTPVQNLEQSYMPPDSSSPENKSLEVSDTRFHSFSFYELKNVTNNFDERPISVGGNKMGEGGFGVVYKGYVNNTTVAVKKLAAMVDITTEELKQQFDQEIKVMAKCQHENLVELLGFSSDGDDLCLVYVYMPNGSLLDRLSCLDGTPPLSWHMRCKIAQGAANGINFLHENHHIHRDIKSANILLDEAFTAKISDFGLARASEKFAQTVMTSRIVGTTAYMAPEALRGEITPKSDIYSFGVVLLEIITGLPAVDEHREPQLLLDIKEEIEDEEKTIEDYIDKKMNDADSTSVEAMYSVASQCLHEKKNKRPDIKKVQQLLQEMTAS
# Description: The degradation level of IRAK4 in monocytes of human peripheral blood mononuclear cells (hPBMCs) was detected by flow cytometry.
# On day 1, the cells were seeded at a density of 2 × 10^5 cells per well in 100 µL in a 96-well plate.
# (§1) The compounds were dissolved in DMSO to a final concentration of 10 mM, and then diluted with culture medium at a 1:5 concentration gradient to prepare 10 concentrations. The diluted solutions were added to the cells to obtain a maximum final concentration of 2 µM. Wells containing cells treated with 0.1% DMSO served as the positive control
# The cells were incubated at 37°C in a 5% CO2 incubator for 24 hours.
# (§2) The cells were stained for viability discrimination using the LIVE/DEAD™ Fixable Blue Dead Cell Stain Kit, and surface staining of monocytes was performed with PE Mouse Anti-Human CD14, followed by incubation at 4°C for 30 minutes.
# Fix buffer I, equal in volume to the cultured cells, was added, and the cells were fixed at 37°C for 10 minutes.
# 150 µL of Perm III reagent was added, and the cells were incubated at 4°C for 30 minutes to permeabilize the membranes.
# (§3) Flow cytometry analysis was performed using a flow cytometer.
# The flow cytometry data were analyzed using Flowjo software. Data presentation and DC50 calculation were performed using Prism 8.0.2 (GraphPad).
# [2] = target: T1, IRAK4; experiment: Degradation of IRAK4 in SU-DHL-2 cells (flow cytometry); assay type: cell-based; parameters: The degradation level of IRAK4 protein in SU-DHL-2 cell line by the compounds was detected by flow cytometry; endogenous in cells; host or cells: SU-DHL-2; OCI-LY3; conditions: SU-DHL-2 cells, 24 hours incubation; read-out: SU-DHL-2 DC50
# Description: The degradation level of IRAK4 protein in SU-DHL-2 cell line by the compounds was detected by flow cytometry.
# as §1, with “Step 2: On day 1, the cells were seeded at a density of 2 × 10^5 cells per well in 100 µL in a 96-well plate. The compounds” for “The compounds”, “[…] The cells were incubated at 37°C in a 5% CO2 incubator for 24 hours.” for “positive control”
# as §2, with “Step 3: After centrifugation, the cells were washed with FACS buffer. The” for “The”
# Step 4: After centrifugation, the cells were washed with FACS buffer. Fix buffer I, equal in volume to the cultured cells, was added, and the cells were fixed at 37°C for 10 minutes.
# Step 5: After centrifugation, the cells were washed with FACS buffer. 150 µL of Perm III reagent was added, and the cells were incubated at 4°C for 30 minutes to permeabilize the membranes. After centrifugation, the cells were washed with FACS buffer.
# as §3
# The flow cytometry data were analyzed using Flowjo software. Data presentation and DC50 (half-maximal degradation concentration) calculation were performed using Prism 8.0.2 (GraphPad).
# [3] = test system: TNFα secretion; experiment: Inhibition of induced TNFα secretion in human PBMCs (CBA); assay type: cell-based; conditions: PBMC
# Description: (§4) The effect of PROTAC small molecules on inflammatory factors in PBMCs downstream of IRAK4 induced by TLR and IL-1 was detected based on the CBA (cytometric bead array) method.
# (§5) Step 2: The density of PBMCs was adjusted to 1 E6/mL, and 150 µL of PBMCs in 1640 complete medium were seeded into a 96-well plate, followed by incubation at 37°C for 1 hour.
# (§6) Step 3: 50 µL of serially diluted small molecule (working concentration: 10000 nM, 1:3 dilution) drugs were inoculated into the plate in a 37°C incubator for 8 hours.
# (§7) Step 4: 10 µL of stimulants were added respectively, with final concentrations of 100 ng/mL for LPS, 1 µg/mL for R848, and 100 ng/mL for IL-1β.
# (§8) Step 5: CBA assay. The concentrations of IL-6 and TNF-α in the cell culture supernatant were determined using Hu IL-6 CBA Flex Set A7 and Hu TNF- CBA Flex Set D9.
# (§9) Step 6: Standard samples were prepared: 2500 pg/mL, 1250 pg/mL,...0. A 1:2 serial dilution was performed to obtain 10 concentrations.
# (§10) Step 7: The mixed capture beads were resuspended in capture bead diluent (1:50), and cell culture supernatant (50 µL) was added, followed by incubation at room temperature for 10 minutes.
# (§11) Step 8: The detection reagent prepared with detection diluent was added, and the mixture was incubated in the dark at room temperature for 3 hours. At the end of incubation, the samples were washed once with wash buffer and resuspended for detection.
# (§12) The concentrations of IL-6 and TNFα were calculated using the standard curve method. Data presentation and IC50 calculation were performed using Prism 8.0.2.
# [4] = test system: IL-6 secretion; experiment: Inhibition of induced IL-6 secretion in human PBMCs (CBA); assay type: cell-based; conditions: PBMC
# Description: as §4, §5, §6, §7, §8, §9, §10, §11, §12
# [5] = Dog pharmacokinetics, oral gavage (Experiment 3); assay type: in vivo; conditions: Beagle dogs, oral gavage 2.5 mg/kg, plasma
# Description: Healthy Beagle dogs, male, weighing about 8-10 kg, 3 animals per group.
# The animals were not fasted and had free access to water.
# Venous blood (0.5-0.8 mL) was collected at 15 minutes, 30 minutes, 1 hour, 2 hours, 4 hours, 8 hours, and 24 hours after oral gavage administration, placed in K2EDTA tubes, and centrifuged at 4°C to separate plasma. The concentration of the compound in plasma was determined by liquid chromatography-tandem mass spectrometry.
# The main pharmacokinetic parameters were calculated using WinNonlin. […] Table 8. Pharmacokinetic parameters of some compounds of the present disclosure administered orally to dogs
# [6] = mice, 8 hours after last administration
# Description: Experimental animals: SPF-grade male C57BL/6J mice aged 6-8 weeks.
# Preparation of compound: 10% DMSO + 50% PEG400 + 40% sterile water for injection. The compound was dissolved in DMSO, followed by the addition of PEG400 and sterile water for injection, and the solution was adjusted to clarity with 6N hydrochloric acid.
# Compound administration and IL-33 inflammatory induction: The mice were randomly grouped according to body weight and orally administered with the compound at final doses of 15 mg/kg, 50 mg/kg, and 150 mg/kg, twice daily. At 4 hours after the last administration of the compound, the mice were intraperitoneally injected with 1 µg/100 µL PBS of IL-33 for inflammatory induction.
# Termination, sample collection, and data: Plasma, peritoneal lavage fluid, and spleen were collected for subsequent sample index detection.
# The experiment was terminated 8 hours after the last administration. The mice were anesthetized, and cardiac blood was collected. The blood samples were anticoagulated with EDTA-K2, centrifuged at 3500 rpm for 15 minutes, and the upper plasma was collected.
# [7] = target: hERG potassium channel (Homo sapiens, UniProt Q12809); experiment: Inhibition of hERG potassium channel, whole-cell manual patch clamp in CHO-hERG cells; conditions: @ 1 µM test compound
# Chain of hERG potassium channel (Q12809 whole entry): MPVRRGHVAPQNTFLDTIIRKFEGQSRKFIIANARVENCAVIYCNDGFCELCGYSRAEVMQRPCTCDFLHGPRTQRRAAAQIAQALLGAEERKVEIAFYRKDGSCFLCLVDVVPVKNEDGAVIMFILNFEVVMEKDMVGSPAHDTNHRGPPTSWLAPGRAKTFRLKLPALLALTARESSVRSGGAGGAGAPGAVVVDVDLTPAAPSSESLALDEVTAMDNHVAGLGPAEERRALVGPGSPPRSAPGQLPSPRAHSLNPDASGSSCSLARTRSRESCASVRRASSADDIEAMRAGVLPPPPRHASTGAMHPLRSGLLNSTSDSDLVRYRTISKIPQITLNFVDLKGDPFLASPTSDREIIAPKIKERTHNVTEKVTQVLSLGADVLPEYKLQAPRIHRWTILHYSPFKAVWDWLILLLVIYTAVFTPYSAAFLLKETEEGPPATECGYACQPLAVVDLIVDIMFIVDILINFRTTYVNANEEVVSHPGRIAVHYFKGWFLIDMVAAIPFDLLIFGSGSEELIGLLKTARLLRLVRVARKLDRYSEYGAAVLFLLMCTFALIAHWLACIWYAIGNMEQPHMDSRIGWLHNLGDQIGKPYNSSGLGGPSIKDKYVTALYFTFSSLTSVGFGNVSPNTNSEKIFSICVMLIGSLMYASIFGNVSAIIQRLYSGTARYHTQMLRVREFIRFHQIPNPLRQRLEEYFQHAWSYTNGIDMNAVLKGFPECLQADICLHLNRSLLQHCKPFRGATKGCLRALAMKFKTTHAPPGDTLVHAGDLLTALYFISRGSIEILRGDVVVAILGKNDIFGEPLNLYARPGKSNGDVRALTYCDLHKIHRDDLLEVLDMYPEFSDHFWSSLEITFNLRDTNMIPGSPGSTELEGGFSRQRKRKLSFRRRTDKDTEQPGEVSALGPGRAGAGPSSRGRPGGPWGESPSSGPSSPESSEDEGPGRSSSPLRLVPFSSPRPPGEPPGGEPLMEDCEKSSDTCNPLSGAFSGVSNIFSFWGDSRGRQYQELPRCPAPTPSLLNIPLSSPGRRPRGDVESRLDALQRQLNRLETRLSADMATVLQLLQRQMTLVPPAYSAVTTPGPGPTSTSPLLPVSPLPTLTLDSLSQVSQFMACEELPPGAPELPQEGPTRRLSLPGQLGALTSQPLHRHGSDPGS
# Description: The effects of compounds on hERG potassium channel (human Ether-a-go-go Related Gene potassium channel) currents were tested using the whole-cell manual voltage-clamp electrophysiological method.
# CHO cells stably expressing hERG were cultured in cell culture dishes with a diameter of 35 mm and incubated at 37°C in a 5% CO2 incubator. The cells were passaged at a ratio of 1:5 every 48 hours. The culture medium was formulated as follows: 90% F12 (Invitrogen), 10% fetal bovine serum (Gibco), 100 g/mL G418 (Invitrogen), and 100 g/mL Hygromycin B (Invitrogen). On the day of the experiment, the cell culture medium was aspirated, and the cells were rinsed once with extracellular solution. […] The digestion solution was aspirated, and the cells were resuspended in extracellular solution and then transferred to experimental dishes for electrophysiological recording for later use.
# On the day of testing, the compounds were prepared as 10 mM stock solutions in DMSO, then diluted to 1 mM with DMSO, and further diluted 1000-fold with extracellular solution to obtain the desired final test concentration.
# hERG potassium channel currents were recorded at room temperature using the whole-cell patch-clamp technique in CHO cells stably expressing the hERG channel. The glass microelectrode was prepared by pulling the glass electrode blank (BF150-86-10, Sutter) with a puller, and the tip resistance after filling with the internal electrode solution was about 2-5 MΩ. The glass microelectrode was inserted into the amplifier probe and then connected to the patch-clamp amplifier. The clamping voltage and data recording were controlled and recorded by pClamp software via a computer, with a sampling frequency of 10 kHz and a filtering frequency of 2 kHz. After obtaining the whole-cell recording, cells were clamped at -100 mV. The hERG potassium current (IhERG) was evoked by applying a 2 s depolarizing voltage step from -100 mV to +20 mV, followed by repolarization to -50 mV for 1 s before returning to -100 mV. […]
# Data were analyzed and processed using pClamp, GraphPad Prism 8 and Excel software. […]
Structure (SMILES),DC50 [1],DC50 [2],"IC50 ([3]; IL-1β 100 ng/mL, read-out: IC50, TNFα secretion induced by IL-1β)","IC50 ([3]; LPS 100 ng/mL, read-out: IC50, TNFα secretion induced by LPS)","IC50 ([3]; R848 1 µg/mL, read-out: IC50, TNFα secretion induced by R848)","IC50 ([4]; IL-1β 100 ng/mL, read-out: IC50 of compounds against induced secretion, IL-6, IL-1β)","IC50 ([4]; LPS 100 ng/mL, read-out: IC50 of compounds against induced secretion, IL-6, LPS)","IC50 ([4]; R848 1 µg/mL, read-out: IC50 of compounds against induced secretion, IL-6, R848)",AUC(0-t) at 24 h [5],Cmax [5],MRT inf [5],half-life [5],C8hr Plasma ([6]; PO 15 mpk twice daily),C8hr Spleen ([6]; PO 15 mpk twice daily),C8hr Plasma ([6]; PO 50 mpk twice daily),C8hr Spleen ([6]; PO 50 mpk twice daily),C8hr Plasma ([6]; PO 150 mpk twice daily),C8hr Spleen ([6]; PO 150 mpk twice daily),hERG (inhibition%) [7]
Cn1c(=O)n(C2CCC(=O)NC2=O)c2cccc(C#CC(C)(C)N3CCC(C(=O)N4CCC5(CC4)CC(n4cc(NC(=O)c6cnn7ccc(N8C[C@H]9C[C@@H]8CO9)nc67)c(C(F)F)n4)C5)CC3)c21 (stereo partly shown) [Example 56],1.1 nM,5 nM,,,,,,,,,,,,,,,,,
"Cn1c(=O)n(C2CCC(=O)NC2=O)c2cccc(C#CCOC3CCN(C[C@H]4CC[C@H](n5cc(NC(=O)c6cnn7ccc(N8C[C@H]9C[C@@H]8CO9)nc67)c(C(F)F)n5)CC4)CC3)c21 (stereo partly shown) [KT-474, reference compound]",,,13 nM,31 nM,52 nM,18 nM,41 nM,14 nM,380 ng·h/mL,31 ng/mL,10.3 h,6.7 h,100 ng/mL,896 ng/mL,262 ng/mL,1740 ng/mL,578 ng/mL,7262 ng/mL,47% @ 1 µM

# Source: patent EP4656640A1, “IRAK4 DEGRADER AND USE THEREOF” (Shanghai Qilu Pharmaceutical Research and Development …, priority 2023, dated 2024)
